Among the data in PubChem BioAssay AID1645865 (Buhrlage Lab, Dana-Farber Cancer Institute and Novartis …, 2021) are IC50 values, retold here.

Activity calls are given as the source filed them.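 Rule for the calls: active = maximal inhibition of the USP30 enzyme reaching 30% or more across the dose series; inactive = the rest.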

In general, IC50 refers to the midpoint of a concentration-inhibition curve.

Ubiquitin carboxyl-terminal hydrolase 30 (Homo sapiens), sequence (Q70CQ3 whole entry, looked up): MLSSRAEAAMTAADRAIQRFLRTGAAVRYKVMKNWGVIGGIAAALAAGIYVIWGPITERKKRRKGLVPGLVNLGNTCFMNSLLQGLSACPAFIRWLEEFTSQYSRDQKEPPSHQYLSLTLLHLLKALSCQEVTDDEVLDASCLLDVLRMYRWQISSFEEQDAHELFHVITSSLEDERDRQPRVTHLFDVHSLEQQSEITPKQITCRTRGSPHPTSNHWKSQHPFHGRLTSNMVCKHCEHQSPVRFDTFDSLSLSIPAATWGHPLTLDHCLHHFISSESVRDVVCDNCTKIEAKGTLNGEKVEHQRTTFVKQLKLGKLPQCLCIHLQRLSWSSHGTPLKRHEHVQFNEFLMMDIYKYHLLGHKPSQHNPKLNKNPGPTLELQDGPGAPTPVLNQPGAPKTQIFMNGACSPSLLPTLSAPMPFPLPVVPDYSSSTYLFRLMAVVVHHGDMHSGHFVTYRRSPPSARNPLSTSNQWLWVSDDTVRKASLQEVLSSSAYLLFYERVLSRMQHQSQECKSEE

This test has as its target Ubiquitin carboxyl-terminal hydrolase 30 (Homo sapiens) (UniProt Q70CQ3). The experiment in a line: inhibitors of ubiquitin-specific protease 30 deubiquitylating enzyme, concentration dependence, in vitro biochemical, validation of primary hits (AID 1645865). Particulars: purified USP30, Ub-rhodamine cleavage, fluorescence, 2 h.
Regarding `O=C(Nc1cccc2ccccc12)N1CCC(c2nc3c(nnn3Cc3ccc(F)cc3)c(=O)[nH]2)CC1`, the IC50 is 33.9 µM.
For `Cc1ccc(-n2nnc(C(=O)NC3CCCCC3)c2N)cc1`, the IC50 is 21.4 µM.
On to `COC(=O)c1cc(C)sc1NC(=O)c1cccc(OC)c1OC`, for which the IC50 was > 50 µM (inactive).
Regarding `COc1ccc(CNC(=O)CN2C(=O)C(C)=C(c3ccc(C)cc3)S2(=O)=O)cc1`, the IC50 is > 50 µM (inactive).
Turning to `N#Cc1ccc(Cc2ncc(C(F)(F)F)cc2Cl)s1`, the IC50 is > 50 µM (inactive).
With `O=[N+]([O-])c1cccc(CSc2nnc(/C=C/c3ccccc3)o2)c1`, the IC50 is > 50 µM (inactive).
For `O=C(Nc1cccc(-c2nc3ccccc3[nH]2)c1)c1cc2ccccc2oc1=O`, the half-maximal inhibitory concentration (IC50) was 0.304 µM.
For the molecule `CCC1OC(O)(C(C)C(O)C(C)C2OC(=O)/C(C)=C/C(C)=CC(C)C(O)C(C)C/C(C)=C/C=C/C2OC)CC(OC(=O)/C=C/C(=O)NC2=C(O)CCC2=O)C1C` (stereo unspecified), the IC50 is > 50 µM (inactive).
The figure for `C/C=C1/C2=CCCN3C(=O)O[C@H]([C@H]1O)[C@H]23` is > 50 µM (inactive).
The figure for `CC1CCCN(S(=O)(=O)c2cc3cc(F)ccc3oc2=O)C1` (stereo unspecified) is 21.6 µM; for `Cc1c(C(=O)Nc2cccc(C(F)(F)F)c2)cnn1-c1ccccn1` it is 36 µM.
On to `O=C(COc1cccc2ccc(N3CCC(Cc4ccccc4)CC3)nc12)NCc1ccc(F)cc1`, for which the half-inhibitory concentration (IC50) is 23.1 µM.
With `COc1ccc(C2C(C(=O)C(C)(C)C)N3c4ccccc4C=CC3C23C(=O)c2ccccc2C3=O)c(OC)c1` (stereo unspecified), the IC50 is > 50 µM (inactive).
With `COc1cccc(S(=O)(=O)N2CCn3nc(C(C)(C)C)cc3C2)c1`, the IC50 was 24.6 µM.
Consider `Fc1ccc(Nc2nc(Nc3cccc(F)c3)nc3nccnc23)cc1`, for which the IC50 was > 50 µM (inactive).
In the case of `COC(=O)c1cc2c(ccn2C)n1CC(=O)NC1CCCC1`, the IC50 was > 50 µM (inactive).
For the molecule `O=C1CC(c2ccco2)Cc2[nH]c(=O)c(-c3nc(-c4ccc(Cl)cc4)cs3)cc21` (stereo unspecified), the IC50 is > 50 µM (inactive).
In the case of `CCCC(=O)Nc1nc2ccc(CCC(=O)NCc3ccc(F)cc3)cc2s1`, the IC50 is 34.1 µM.
The figure for `COc1cc(C(=O)OCc2csc(-c3ccccc3)n2)ccc1OCC(=O)Nc1ccc(F)cc1` is > 50 µM (inactive).
In the case of `O=C(Cn1cncc(-c2nc(-c3ccccc3)cs2)c1=O)NC1CCCC1`, the 50% inhibitory concentration (IC50) is 34.5 µM.
With `Cc1c(C(=O)NCc2cccc(Br)c2)oc2c1-c1[nH]ncc1CC2` the figure was > 50 µM (inactive); with `O=C(NC1CC1)c1ccnn1-c1ccc2ccc(-c3ccncc3)cn12`, > 50 µM (inactive).
The figure for `CC(C)Cc1nc2sc3c(NCCN4CCOCC4)ncnc3c2c2c1CCC2` is > 50 µM (inactive); for `COc1cc(NC(=O)COC(=O)Cn2cnc3ccccc32)cc(OC)c1` it is > 50 µM (inactive).
In the case of `CC(C)N1CC[C@@H]2[C@H](C1)CN2C(=O)Nc1cccc(F)c1`, the IC50 was > 50 µM (inactive).
The figure for `COc1ccc(CC(=O)Nc2cccc(-c3nc4ncccc4o3)c2)cc1OC` is > 50 µM (inactive); for `Cc1nc(-c2ccc3c(c2)nnn3CCN2CCOCC2)no1` it is > 50 µM (inactive); for `COc1ccccc1NC(=O)Cn1cc(C(=O)c2ccc(C)cc2)c(=O)c2ccccc21` it is 22.9 µM.
The figure for `CCCCN1CC(C(=O)Nc2ccc(C(=O)Nc3ccc(F)c(Cl)c3)cc2)CC1=O` (stereo unspecified) is 47.5 µM; for `COc1c2nc3ccccc3oc-2cc(=O)c1OC` it is > 50 µM (inactive).
For `COc1cccc(-n2c(=O)[nH]c3c(C(N)=O)nc(-c4ccc(OCc5ccccc5)cc4)nc32)c1`, the IC50 is > 50 µM (inactive).
For the molecule `COc1ccccc1C(=O)NCC(c1ccc2c(c1)CCCN2C)N1CCCC1` (stereo unspecified), the IC50 is > 50 µM (inactive).
With `COc1ccc(Cn2cnc3c([nH]c4ccc(Br)cc43)c2=O)cc1` the figure was 0.833 µM.
The figure for `COc1ccc(C(C(=O)NCc2ccccc2)N(C(=O)CCN2CCc3ccccc32)c2ccc(C)c(C)c2)cc1` (stereo unspecified) is > 50 µM (inactive); for `COCCCNC(=O)c1ccc(Cn2c(=O)c3ccccc3n(CC(=O)Nc3ccc(OC)cc3)c2=O)cc1` it is 23.9 µM; for `COc1ccc(NC(=O)c2nc3n(n2)-c2ccccc2S(=O)(=O)N3)cn1` it is > 50 µM (inactive).
With `CN1CCN(C(=O)c2ccn(-c3ccc4ccc(-c5cnn(C)c5)cn34)n2)CC1` the figure was > 50 µM (inactive); with `CCOC(=O)c1ccc(NC(=O)C[n+]2cc(-c3ccc(Cl)cc3)n3c2CCC3)cc1`, 38.5 µM.
Regarding `O=C(Cn1cncc(C(=O)NC2CCCC2)c1=O)Nc1cccc(F)c1`, the 50% inhibitory concentration (IC50) was 19.3 µM.
The figure for `O=C(Cn1c(=O)c2sccc2n(Cc2ccc([N+](=O)[O-])cc2)c1=O)NCCc1ccccc1` is 21.7 µM.
With `Fc1ccc(Oc2nc(CN3CCOCC3)nc3sc4c(c23)CCCC4)c(Cl)c1` the figure was > 50 µM (inactive); with `O=C(NCc1ccc(Cl)cc1)c1ccc(N2CCCS2(=O)=O)cc1`, > 5 µM (inactive); with `Cc1ccc(-c2ncc(C(=O)NCc3cccc(C)c3)c(-c3ccncc3)n2)cc1`, > 50 µM (inactive).
With `CCCCc1nc2sc3c(SCC(=O)NCc4ccccc4)ncnc3c2c2c1CCC2` the figure was > 50 µM (inactive); with `c1ccc(-n2nnc(-c3noc(-c4ccccn4)n3)c2-c2ccncc2)cc1`, 25.4 µM; with `COc1cccc(NC(=O)C2Cc3ccccc3N2C(=O)c2ccccc2)c1` (stereo unspecified), 22.2 µM.
With `COCCn1c(=O)[nH]c2cc(C(=O)NCCNc3ccc([N+](=O)[O-])cc3C#N)ccc2c1=O`, the IC50 is 2.35 µM.
With `COc1ccc(OC)c(CCNC(=O)CCC2=NS(=O)(=O)c3ccc(C(F)(F)F)cc3N2)c1`, the IC50 is 23.5 µM.
Consider `Cc1nc(N2CCCC2)ncc1-c1cc(=O)[nH]c(N2CCc3ccccc3C2)n1`, for which the IC50 is 24.4 µM.
With `COc1cc(OC)cc(-n2c(=O)c3sccc3n(CC(=O)c3ccc(F)cc3)c2=O)c1` the figure was 31.3 µM; with `Clc1cccc(N2CCN(c3ncnc4nc[nH]c34)CC2)c1`, 24.6 µM.
The figure for `CCOc1ccc(Nc2cc(C(=O)NCCc3ccccc3)c3ccccc3n2)cc1` is 13.6 µM; for `O=C(Nc1ccc2sccc2c1)c1ccc(F)cc1` it is 35.4 µM.
For `Cc1ccc(-n2nc(C(=O)Nc3ccc(C)cn3)c3ncn(C)c(=O)c32)cc1`, the IC50 is 1.82 µM.
With `CCc1ccc2[nH]c(=O)c(CN(CCc3ccc(OC)c(OC)c3)C(=O)Nc3ccccc3)cc2c1` the figure was > 50 µM (inactive).
With `C=C1CCC2[C@](C)(CCC[C@]2(C)C(=O)OC)[C@H]1CCc1ccoc1/C=C/C(=O)O` (stereo partly specified) the figure was > 50 µM (inactive); with `Cc1c(C)n(-c2ccccc2)c2ncn(CC(=O)NC(C)c3ccccc3)c(=O)c12` (stereo unspecified), 23 µM; with `O=C(CCc1nnc2n(Cc3ccccc3)c(=O)c3ccccc3n12)N1CCN(c2ccccn2)CC1`, 2.29 µM.
For the molecule `CC(C)c1nc2sc3c(N(CCO)CCO)ncnc3c2c2c1COC(C)(C)C2`, the IC50 is > 50 µM (inactive).
The figure for `Cc1cnnn1-c1ccc(C(=O)Nc2ccc(Cl)cc2)cc1` is 29.5 µM; for `NS(=O)(=O)c1ccc(CNS(=O)(=O)c2ccc(-c3ccccn3)s2)cc1` it is 24.5 µM.
